Assay results as given in patent US11207320B2, “Compositions and methods for cancer expressing PDE3A or SLFN12” (The Broad Institute, Inc., priority 2015, dated 2021).

Assays:
HeLa cells = test: Compound sensitivity testing in cell lines (48 h viability); format: cell-based
Description: 1500 NCI-H1734 or 1000 A549 cells were plated in a 384-well plate in 40 μl of RPMI supplemented with 10% Fetal Bovine Serum and 1% Pen/Strep. 24 hours after plating, a compound-library of 1924 small molecules was added at a concentration of 10 μM. Staurosporine was used a positive control for cytotoxicity at a concentration of 10 μM, and DMSO was used a negative control at a concentration of 1%. All compounds were incubated for 48 hours with indicated small molecules. After 48 hours, 384-well plates were removed from the incubator and allowed to cool to room temperature for 20 minutes. Cell viability was assessed by adding 40 μl of a 25% CELLTITERGLO® (Promega) in PBS with a THERMO COMBI™ or multichannel-pipette and incubated for 10 minutes. The luminescence signal was read using a Perkin-Elmer EnVision. Viability percentage was calculated by normalizing to DMSO controls.
1000 HeLa (DMEM), 1000 A549 (RPMI), 500 MCF-7 (DMEM), 4000 PC3 (F12-K), 1000 NCI-H2122 (RPMI) or 1500 NCI-H1563 (RPMI) cells were plated in a 384-well plate in 40 μl of corresponding growth media supplemented with 10% Fetal Bovine Serum. 24 hours after plating, indicated compounds were added at indicated concentrations and incubated for 48 hours. Cell viability was assessed as described in Compound library screening in NCI-H1734 and A549 cell lines.

PDE3A and SLFN12 = target: T1, PDE3A and SLFN12 (Homo sapiens, UniProt Q14432); test: Validation of DNMDP-induced PDE3A protein interactions using immunoprecipitation and immunoblotting; format: cell-based; details: for PDE3A and SLFN12 complex formation: FIG. 20, affinity reagents, immunoblot; for complex formation of V5-tagged SIRT7 and SLFN12 with PDE3A: HeLa, 10 μM, 4 hours, coimmunoprecipitation (FIG. 19)
T1 construct: Endogenous PDE3A was immunoprecipitated; host or cells: HeLa
Description: FIG. 19 is an immunoblot showing that DNMDP induces interaction between PDE3A and SIRT7 and SLFN12 in HeLa cells. HeLa cells were transfected with indicated plasmids and treated with indicated compounds with a final concentration of 10 μM for four hours. Endogenous PDE3A was immunoprecipitated and immunoblotted for V5 to identify novel interaction with SIRT7 and SLFN12 (upper two panels). Immunoprecipitate input was immunoblotted for PDE3A and V5 (lower two panels). V5-SLFN12 was undetectable in whole cell lysate.
FIG. 20 is an immunoblot showing confirmation of mass spectrometric results herein using affinity reagents.
HeLa cells were transfected with ORF overexpression constructs expressing V5-tagged SIRT7, V5-tagged SLFN12, or V5-tagged GFP. ORF expression constructs were obtained from the TRC (clone IDs: TRCN0000468231, TRCN0000476272, ccsbBroad304_99997). At 72 hours post transfection, cells were treated with 10 μM DNMDP or trequinsin for 4 hours followed by lysis using the ModRipa lysis buffer and immunoprecipitation of PDE3A. For each condition, 2 mg total protein lysate was incubated with 1 μg of anti-PDE3A antibody at 4° C. overnight, after which 7.5 μl each of Protein A- and Protein G-Dynabeads (Life Technologies 10001D and 10003D) were added and incubated for another 1 hour. Beads were washed and bound proteins were eluted with 30 μl of LDS PAGE gel loading buffer. Input (˜60 μg total protein lysate) and IP products were resolved on 4-12% Tris-Glycine PAGE gels and immunoblotted with an anti-V5 antibody (Life Technologies R96205, 1:5000), the Bethyl anti-PDE3A antibody (1:1000), and secondary antibodies from LiCOR Biosciences (Cat.#926-32210 and 926068021, each at 1:10,000). Blots were washed and imaged using a LiCOR Odyssey infrared imager.

T1 sequence (Q14432 whole entry): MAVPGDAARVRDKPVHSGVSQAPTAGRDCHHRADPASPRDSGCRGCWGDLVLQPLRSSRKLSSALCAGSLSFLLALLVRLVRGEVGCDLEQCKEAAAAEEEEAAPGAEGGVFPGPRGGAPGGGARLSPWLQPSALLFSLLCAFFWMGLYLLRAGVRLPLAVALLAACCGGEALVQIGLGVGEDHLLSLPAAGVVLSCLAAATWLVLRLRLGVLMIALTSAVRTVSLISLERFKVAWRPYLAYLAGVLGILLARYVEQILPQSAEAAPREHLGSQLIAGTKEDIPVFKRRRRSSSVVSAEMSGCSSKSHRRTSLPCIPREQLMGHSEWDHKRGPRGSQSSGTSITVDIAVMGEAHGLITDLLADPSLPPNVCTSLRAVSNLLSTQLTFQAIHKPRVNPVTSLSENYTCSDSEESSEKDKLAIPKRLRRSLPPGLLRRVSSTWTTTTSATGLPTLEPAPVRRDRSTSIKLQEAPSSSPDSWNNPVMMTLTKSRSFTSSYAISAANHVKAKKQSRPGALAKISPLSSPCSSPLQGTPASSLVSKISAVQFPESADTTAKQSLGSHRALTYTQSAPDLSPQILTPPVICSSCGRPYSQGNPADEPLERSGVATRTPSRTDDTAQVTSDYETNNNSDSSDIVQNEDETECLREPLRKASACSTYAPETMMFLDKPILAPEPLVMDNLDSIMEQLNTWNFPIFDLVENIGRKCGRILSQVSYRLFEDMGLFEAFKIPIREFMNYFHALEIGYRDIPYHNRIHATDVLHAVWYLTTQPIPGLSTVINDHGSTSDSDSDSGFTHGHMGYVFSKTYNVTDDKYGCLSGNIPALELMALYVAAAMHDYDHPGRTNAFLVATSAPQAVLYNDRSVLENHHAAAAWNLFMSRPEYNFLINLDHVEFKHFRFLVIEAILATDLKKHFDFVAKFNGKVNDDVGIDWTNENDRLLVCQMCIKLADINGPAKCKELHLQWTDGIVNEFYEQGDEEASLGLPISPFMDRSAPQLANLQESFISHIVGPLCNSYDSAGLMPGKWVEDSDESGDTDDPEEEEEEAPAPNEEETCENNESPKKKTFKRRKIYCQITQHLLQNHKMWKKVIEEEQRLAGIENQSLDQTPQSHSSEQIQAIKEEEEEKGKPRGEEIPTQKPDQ
T1 sequence (Q8IYM2 whole entry partner): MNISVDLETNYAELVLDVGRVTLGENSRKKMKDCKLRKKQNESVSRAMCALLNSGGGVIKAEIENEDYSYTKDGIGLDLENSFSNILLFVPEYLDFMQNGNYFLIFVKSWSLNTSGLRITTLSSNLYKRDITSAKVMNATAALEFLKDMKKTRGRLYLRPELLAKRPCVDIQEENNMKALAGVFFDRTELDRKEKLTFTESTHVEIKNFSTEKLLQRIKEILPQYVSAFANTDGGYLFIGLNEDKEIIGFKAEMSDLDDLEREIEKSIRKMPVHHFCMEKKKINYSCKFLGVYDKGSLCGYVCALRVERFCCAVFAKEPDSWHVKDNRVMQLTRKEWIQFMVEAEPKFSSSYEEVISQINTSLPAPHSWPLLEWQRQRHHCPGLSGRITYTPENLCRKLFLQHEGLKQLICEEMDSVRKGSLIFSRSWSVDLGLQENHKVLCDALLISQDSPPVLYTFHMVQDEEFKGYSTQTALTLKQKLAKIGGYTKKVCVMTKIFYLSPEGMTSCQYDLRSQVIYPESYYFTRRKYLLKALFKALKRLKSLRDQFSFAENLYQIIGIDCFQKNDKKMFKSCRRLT

| EC50 (HeLa cells; Homo sapiens, HeLa cervical carcinoma cells) [nM] | PDE3A and SLFN12 complex formation (PDE3A and SLFN12) | complex formation of V5-tagged SIRT7 and SLFN12 with PDE3A (PDE3A and SLFN12) | SMILES | EC70 (HeLa cells; HeLa) [nM] | effect on HeLa cell viability / cytotoxicity (HeLa cells; HeLa) |
| --- | --- | --- | --- | --- | --- |
| 10 to 100 | induced | enhanced | CCN(CC)c1ccc(C2=NNC(=O)CC2C)cc1[N+](=O)[O-] (stereo not shown) [DNMDP, 6-(4-(diethylamino)-3-nitrophenyl)-5-methyl-4,5-dihydropyridazin-3(2H)-one] | 30 | – |
| – | not | not | COc1cc2c(cc1OC)-c1c/c(=N\c3c(C)cc(C)cc3C)n(C)c(=O)n1CC2 [trequinsin, 9,10-dimethoxy-3-methyl-2-(2,4,6-trimethylphenyl)imino-6,7-dihydropyrimido[6,1-a]isoquinolin-4-one] | – | did not affect HeLa cell viability in any detectable way |
